According to patent US20260285853A1, “COMPOUNDS AND METHODS FOR MODULATING SPLICING” (REMIX THERAPEUTICS INC., priority 2023, published 2026):
Like-named read-outs stand apart in the source and are kept apart here.

Columns and labels:
Assay type in all cases: cell-based
[1] = system: HTT mRNA; test: Splicing RT-qPCR assay (THP), Table 2A
[2] = system: MYB mRNA; test: Splicing RT-qPCR assay (THP), Table 2A
[3] = system: HTT mRNA; test: Gene panel canonical junction qPCR assay, decrease in CJ mRNA, Table 3
In short: (§1)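 A673 (DMEM, 10% FBS, 15,000 cells/well) or K562 (IMDM, 10% FBS) cells treated 24 h at 37 °C with 11-point 3-fold dilutions, top 10 uM, DMSO ≤0.25%. Canonical exon-exon junction mRNA measured by RT-qPCR, normalized to GAPDH, GUSB or PPIA and DMSO (ΔΔCt); IC50 from 4-parameter logistic fit.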

[4] = system: MYB mRNA; test: as above
In short: as §1

[5] = system: SH-SY5Y (human neuroblastoma) cells; test: Cell viability, Cell Titer Glo 2.0 assay; settings: read-out: Viability SHSY5Y.3 GI50
In short: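 Toxicity screen in SH-SY5Y cells. Compounds were serially diluted in DMSO and then in medium, giving 0.1% DMSO final. Viability was read with CellTiter-Glo 2.0 after 72 h at 37 °C, 5% CO2, against medium-only blank wells.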

[6] = Table 2A, THP, HTT alternative junction (AJ) mRNA, read-out: HTT AJ (AC50, increase in alternative junction mRNA)
[7] = Table 2A, THP, HTT canonical junction (CJ) mRNA, read-out: HTT CJ (IC50, decrease in canonical junction mRNA)
[8] = Table 2A, THP, MYB alternative junction (AJ) mRNA, read-out: MYB AJ (AC50, increase in alternative junction mRNA)
[9] = Table 2A, THP, MYB canonical junction (CJ) mRNA, read-out: MYB CJ (IC50, decrease in canonical junction mRNA)
[10] = decrease in CJ mRNA levels, canonical junction qPCR, gene panel
[11] = Table 2A (THP), AJ mRNA increase, read-out: HTT AJ (increase in alternative junction mRNA, AC50)
[12] = Table 2A (THP), CJ mRNA decrease, read-out: HTT CJ (decrease in canonical junction mRNA, IC50)
[13] = Table 2A (THP), AJ mRNA increase, read-out: MYB AJ (increase in alternative junction mRNA, AC50)
[14] = Table 2A (THP), CJ mRNA decrease, read-out: MYB CJ (decrease in canonical junction mRNA, IC50)
[15] = decrease in canonical junction (CJ) mRNA, gene panel qPCR, Table 3

IC50 [1, 7] [nM] | IC50 [2, 9] [nM] | IC50 [3, 10] [nM] | IC50 [4, 10] [nM] | GI50 [5] [nM] | IC50 [1, 12] [nM] | IC50 [2, 14] [nM] | IC50 [3, 15] [nM] | IC50 [4, 15] [nM] | SMILES | AC50 [1, 6] [nM] | AC50 [2, 8] [nM] | AC50 [1, 11] [nM] | AC50 [2, 13] [nM]
> 10000 | 100 to 1000 | > 10000 | 100 to 1000 | 1000 to 10000 |  |  |  |  | Cn1cc2cc(NC(=O)c3ccc(N4CCC(NC5CC5)CC4)c4cn(C)nc34)cc(CNc3cncs3)c2n1 [Compound 882] | > 10000 | 100 to 1000 |  | 
> 10000 | 100 to 1000 | > 10000 | 100 to 1000 | 100 to 1000 |  |  |  |  | COc1nc2c(C(=O)Nc3cc4cn(C)nc4nc3OC)ccc(N3C[C@H](C)N[C@@H](C)C3)c2s1 [Compound 809] | > 10000 | < 100 |  | 
> 10000 | 100 to 1000 | > 10000 | 100 to 1000 | > 10000 |  |  |  |  | CC(=O)NCc1cc(NC(=O)c2ccc(N3CCC(NC4CC4)CC3)c3cn(C)nc23)cc2cn(C)nc12 [Compound 779] | > 10000 | 100 to 1000 |  | 
> 10000 | 100 to 1000 | > 10000 | 100 to 1000 | 1000 to 10000 |  |  |  |  | COc1nc2c(C(=O)Nc3cc(CNS(C)(=O)=O)c4nn(C)cc4c3)ccc(N3C[C@H](C)N[C@@H](C)C3)c2s1 [Compound 731, 7-((3S,5S)-3,5-dimethylpiperazin-1-yl)-2-methoxy-N-(2-methyl-7-(methylsulfonamidomethyl)-2H-indazol-5-yl)benzo[d]thiazole-4-carboxamide 2,2,2-trifluoroacetate] | > 10000 | 100 to 1000 |  | 
 |  |  |  | 100 to 1000 | 100 to 1000 | < 100 | 100 to 1000 | < 100 | Cn1cc2cc(NC(=O)c3c(F)cc(N4CCC(NC5CC5)CC4)c4cn(C)nc34)c(F)cc2n1 [Compound 422, 4-[4-(cyclopropylamino)-1-piperidy1]-6-fluoro-N-(6-fluoro-2-methyl-indazol-5-yl)-2-methyl-indazole-7-carboxamide] |  |  | 100 to 1000 | < 100
 |  |  |  | 100 to 1000 | 100 to 1000 | 100 to 1000 | 100 to 1000 | 100 to 1000 | Cc1cn2cc(NC(=O)c3ccc(OC4CCNCC4)c4cn(C)nc34)nc2c(C)n1 [Compound 565] |  |  | 100 to 1000 | 100 to 1000
> 10000 | < 100 | > 10000 | < 100 | 100 to 1000 |  |  |  |  | COc1nc2c(C(=O)Nc3cc(C)c4nn(C)cc4n3)ccc(N3C[C@H](C)N[C@@H](C)C3)c2s1 [Compound 738, N-(2,7-dimethyl-2H-pyrazolo[4,3-b]pyridin-5-yl)-7-((3S,5S)-3,5-dimethylpiperazin-1-yl)-2-methoxybenzo[d]thiazole-4-carboxamide 2,2,2-trifluoroacetate] | > 10000 | < 100 |  | 
1000 to 10000 | 100 to 1000 |  |  | 1000 to 10000 |  |  | 1000 to 10000 | 100 to 1000 | CNC1CCC(Oc2ccc(C(=O)Nc3cc4cn(C)nc4cc3OC)c3nn(C)cc23)C1 (stereo not shown) [Compound 603] | 1000 to 10000 | 100 to 1000 |  | 
1000 to 10000 | > 10000 | 1000 to 10000 | > 10000 | > 10000 |  |  |  |  | CCNC1CCN(c2ccc(C(=O)Nc3cn4cc(C)nc(C)c4n3)c3nc(OC)sc23)CC1 [Compound 670, N-(6,8-dimethyl-imidazo[1,2-a]-pyrazin-2-yl)-7-[4-(ethylamino)-1-piperidyl]-2-methoxy-1,3-benzothiazole-4-carboxamide] | > 10000 | > 10000 |  | 
100 to 1000 | < 100 | 100 to 1000 | < 100 | 100 to 1000 |  |  |  |  | COc1cc2c(N3CCC(NC4CC4)CC3)ccc(C(=O)Nc3cc(CO)c4nn(C)cc4c3)n2n1 [Compound 847] | 100 to 1000 | < 100 |  | 
 |  |  |  | 100 to 1000 | 100 to 1000 | 100 to 1000 | 100 to 1000 | 100 to 1000 | COc1c(NC(=O)c2ccc(N3CCC(NC4CC4)CC3)c3cn(C)nc23)cc2cn(C)nc2c1Cl [Compound 461, N-(7-chloro-6-methoxy-2-methyl-indazol-5-yl)-4-[4-(cyclopropylamino)-1-piperidyl]-2-methyl-indazole-7-carboxamide] |  |  | 100 to 1000 | 100 to 1000
 |  |  |  | > 10000 | 1000 to 10000 | 100 to 1000 | 1000 to 10000 | 100 to 1000 | COc1cc2nn(C)cc2cc1NC(=O)c1ccc(N2CC3(CNC3)C2)c2cn(C)nc12 [Compound 506] |  |  | 1000 to 10000 | 100 to 1000
< 100 | < 100 | < 100 | < 100 | 100 to 1000 |  |  |  |  | COc1cc2c(N3CCC(NC4CC4)CC3)ccc(C(=O)Nc3cn4cc(C)nc4c(OC)n3)n2n1 [Compound 634, 4-[4-(cyclopropyl-amino)-1-piperidyl]-2-methoxy-N-(8-methoxy-2-methylimidazo[1,2-a]pyrazin-6-yl)-pyrazolo[1,5-a]pyridine-7-carboxamide] | < 100 | < 100 |  | 
100 to 1000 | < 100 | 100 to 1000 | < 100 | < 100 |  |  |  |  | COc1nc2c(C(=O)Nc3cc(Cl)c4nn(C)cc4c3)ccc(N3C[C@H](C)N[C@@H](C)C3)c2s1 [Compound 785] | 100 to 1000 | < 100 |  | 
> 10000 | 100 to 1000 | > 10000 | 100 to 1000 | 1000 to 10000 |  |  |  |  | COc1nc2c(C(=O)Nc3cc(F)c4nn(C)cc4c3)ccc(N3CCN[C@@H](C(C)(C)C)C3)c2s1 [Compound 742, 7-[(3S)-3-tert-butylpiperazin-1-yl]-N-(7-fluoro-2-methyl-indazol-5-yl)-2-methoxy-1,3-benzothiazole-4-carboxamide] | > 10000 | 100 to 1000 |  | 
> 10000 | 1000 to 10000 | > 10000 | 1000 to 10000 | 1000 to 10000 |  |  |  |  | COc1nc2c(C(=O)Nc3cc4cc(C)nn4cc3OC)ccc(N3C[C@H](C)N[C@@H](C)C3)c2s1 [Compound 787, 7-((3S,5S)-3,5-dimethylpiperazin-1-yl)-2-methoxy-N-(6-methoxy-2-methylpyrazolo[1,5-a]pyridin-5-yl)benzo[d]thiazole-4-carboxamide 2,2,2-trifluoroacetate] | > 10000 | > 10000 |  | 
 |  |  |  | 100 to 1000 | 1000 to 10000 | 100 to 1000 | 1000 to 10000 | 100 to 1000 | CCNC1CCN(c2ccc(C(=O)Nc3cc(Oc4cccc(C)c4)c4nc(C)cn4c3)c3nn(C)cc23)CC1 [Compound 327, 4-[4-(ethylamino)-1-piperidyl]-2-methyl-N-[2-methyl-8-(3-methylphenoxy)imidazo[1,2-a]pyridin-6-yl]indazole-7-carboxamide] |  |  | 1000 to 10000 | < 100
 |  |  |  | 100 to 1000 | 100 to 1000 | 100 to 1000 | 100 to 1000 | 100 to 1000 | CCNC1CC2(C1)CN(c1ccc(C(=O)Nc3cc4cn(C)nc4cc3OC)c3nn(C)cc13)C2 [Compound 578] |  |  | 100 to 1000 | 100 to 1000
> 10000 | > 10000 | > 10000 | > 10000 | > 10000 |  |  |  |  | CCNC1CCN(c2ccc(C(=O)Nc3cn4cc(C)nc(CC(N)=O)c4n3)c3nn(C)cc23)CC1 [Compound 857] | > 10000 | > 10000 |  | 
